Test results from ChEMBL document CHEMBL1201862, “PubChem BioAssay data set” (2004).
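Interpolation was linear, between the two tested concentrations surrounding the appropriate level; five concentrations were tested over 48 hours in 96-well plates. GI50 is the concentration that inhibits growth by half.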 Calls of active or inactive are those of the source. No stated cut-off is given here; in the data, active = GI50 up to about 1.1 µM and inactive = higher.

Assays:
Experiment in all cases: growth of human tumour cells (NCI), 48 h
786-0 = system: 786-0
A498 = system: A498
A549 = system: A549
ACHN = system: ACHN
BT-549 = system: BT-549
CAKI-1 = system: CAKI-1
CCRF-CEM = system: CCRF-CEM
COLO 205 = system: COLO 205
DU-145 = system: DU-145
EKVX = system: EKVX
HCC 2998 = system: HCC 2998
HCT-116 = system: HCT-116
HCT-15 = system: HCT-15
HL-60 = system: HL-60
HOP-62 = system: HOP-62
HOP-92 = system: HOP-92
HT-29 = system: HT-29
Hs-578T = system: Hs-578T
IGROV-1 = system: IGROV-1
K562 = system: K562
KM12 = system: KM12
LOX IMVI = system: LOX IMVI
M14 = system: M14
MCF7 = system: MCF7
MDA-MB-231 = system: MDA-MB-231
MDA-MB-435 = system: MDA-MB-435
MDA-N = system: MDA-N
MOLT-4 = system: MOLT-4
Malme-3M = system: Malme-3M
NCI-H226 = system: NCI-H226
NCI-H23 = system: NCI-H23
NCI-H460 = system: NCI-H460
NCI-H522 = system: NCI-H522
NCI/ADR-RES = system: NCI/ADR-RES
OVCAR-3 = system: OVCAR-3
OVCAR-5 = system: OVCAR-5
OVCAR-8 = system: OVCAR-8
PC-3 = system: PC-3
RPMI-8226 = system: RPMI-8226
RXF 393 = system: RXF 393
SF-268 = system: SF-268
SF-295 = system: SF-295
SF-539 = system: SF-539
SK-MEL-28 = system: SK-MEL-28
SK-MEL-2 = system: SK-MEL-2
SK-MEL-5 = system: SK-MEL-5
SK-OV-3 = system: SK-OV-3
SN12C = system: SN12C
SNB-19 = system: SNB-19
SNB-75 = system: SNB-75
SR = system: SR
SW-620 = system: SW-620
T47D = system: T47D
U-251 = system: U-251
UACC-257 = system: UACC-257
UACC-62 = system: UACC-62
UO-31 = system: UO-31
OVCAR-4 = system: OVCAR-4
TK-10 = system: TK-10

CC(NC(=O)/C(=C/c1ccccc1)NC(=O)c1ccccc1)C(=O)O (centres undefined) was tested, and the GI50 (786-0) was 39.5 µM (inactive), the GI50 (A498) was > 100 µM (inactive) and the GI50 (A549) was > 100 µM (inactive). For the same compound, the GI50 (ACHN) was 38.6 µM (inactive), the GI50 (BT-549) was > 100 µM (inactive) and the GI50 (CAKI-1) was 29.7 µM (inactive). For the same compound, the GI50 (CCRF-CEM) was > 100 µM (inactive), the GI50 (COLO 205) was > 100 µM (inactive) and the GI50 (DU-145) was > 100 µM (inactive). For the same compound, the GI50 (EKVX) was 40.4 µM (inactive), the GI50 (HCC 2998) was > 100 µM (inactive) and the GI50 (HCT-116) was 91.2 µM (inactive). For the same compound, the GI50 (HCT-15) was 87.9 µM, the GI50 (HL-60) was 77.1 µM (inactive) and the GI50 (HOP-62) was > 100 µM (inactive). The GI50 (HOP-92) was 33.1 µM (inactive), the GI50 (HT-29) was > 100 µM (inactive) and the GI50 (Hs-578T) was 88.3 µM (inactive). The GI50 (IGROV-1) was 21.3 µM (inactive), the GI50 (K562) was > 100 µM (inactive) and the GI50 (KM12) was 6.59 µM (inactive). The GI50 (LOX IMVI) was 25.2 µM (inactive), the GI50 (M14) was > 100 µM (inactive) and the GI50 (MCF7) was 54.2 µM (inactive). For the same compound, the GI50 (MDA-MB-231) was 36.5 µM (inactive), the GI50 (MDA-MB-435) was 38.8 µM (inactive) and the GI50 (MDA-N) was 55.8 µM (inactive). For the same compound, the GI50 (MOLT-4) was > 100 µM (inactive), the GI50 (Malme-3M) was > 100 µM (inactive) and the GI50 (NCI-H226) was 26.1 µM (inactive). The GI50 (NCI-H23) was 47.4 µM (inactive), the GI50 (NCI-H460) was > 100 µM (inactive) and the GI50 (NCI-H522) was > 100 µM (inactive). For the same compound, the GI50 (NCI/ADR-RES) was 40.5 µM (inactive), the GI50 (OVCAR-3) was > 100 µM (inactive) and the GI50 (OVCAR-5) was > 100 µM (inactive). The GI50 (OVCAR-8) was 50 µM (inactive), the GI50 (PC-3) was > 100 µM (inactive) and the GI50 (RPMI-8226) was > 100 µM (inactive). For the same compound, the GI50 (RXF 393) was > 100 µM (inactive), the GI50 (SF-268) was > 100 µM (inactive) and the GI50 (SF-295) was 96.4 µM (inactive). The GI50 (SF-539) was 20.6 µM (inactive), the GI50 (SK-MEL-28) was > 100 µM (inactive) and the GI50 (SK-MEL-2) was > 100 µM (inactive). For the same compound, the GI50 (SK-MEL-5) was > 100 µM (inactive), the GI50 (SK-OV-3) was 87.3 µM (inactive) and the GI50 (SN12C) was 92.3 µM (inactive). For the same compound, the GI50 (SNB-19) was 77.1 µM (inactive), the GI50 (SNB-75) was 24.1 µM (inactive) and the GI50 (SR) was 37.6 µM (inactive). The GI50 (SW-620) was > 100 µM (inactive), the GI50 (T47D) was 29.6 µM (inactive) and the GI50 (U-251) was 34 µM (inactive). For the same compound, the GI50 (UACC-257) was > 100 µM (inactive), the GI50 (UACC-62) was 57 µM (inactive) and the GI50 (UO-31) was 91.4 µM (inactive).

For C/C=C/C(O)P(=O)(OC)OC (centres undefined), the GI50 (786-0) was 0.173 µM (active), the GI50 (A498) was 0.316 µM (active) and the GI50 (A549) was 0.274 µM (active). For the same compound, the GI50 (ACHN) was 0.344 µM (active), the GI50 (BT-549) was 0.594 µM (active) and the GI50 (CAKI-1) was 0.589 µM (active). The GI50 (CCRF-CEM) was 0.227 µM (active), the GI50 (COLO 205) was 0.184 µM (active) and the GI50 (DU-145) was 0.34 µM (active). For the same compound, the GI50 (EKVX) was 0.308 µM (active), the GI50 (HCC 2998) was 0.27 µM (active) and the GI50 (HCT-116) was 0.254 µM (active). For the same compound, the GI50 (HCT-15) was 0.309 µM, the GI50 (HL-60) was 0.256 µM (active) and the GI50 (HOP-62) was 0.628 µM (active). For the same compound, the GI50 (HOP-92) was < 0.0385 µM (active), the GI50 (HT-29) was 0.33 µM (active) and the GI50 (Hs-578T) was 0.213 µM (active). The GI50 (IGROV-1) was 0.275 µM (active), the GI50 (K562) was 0.318 µM (active) and the GI50 (KM12) was 0.278 µM (active). For the same compound, the GI50 (LOX IMVI) was 0.187 µM (active), the GI50 (M14) was 0.207 µM (active) and the GI50 (MCF7) was 0.269 µM (active). For the same compound, the GI50 (MDA-MB-231) was 0.428 µM (active), the GI50 (MDA-MB-435) was 0.267 µM (active) and the GI50 (MDA-N) was 0.217 µM (active). The GI50 (MOLT-4) was 0.3 µM (active), the GI50 (Malme-3M) was 0.296 µM (active) and the GI50 (NCI-H226) was 0.332 µM (active). For the same compound, the GI50 (NCI-H23) was 0.307 µM (active), the GI50 (NCI-H460) was 0.272 µM (active) and the GI50 (NCI-H522) was 0.214 µM (active). For the same compound, the GI50 (NCI/ADR-RES) was 0.473 µM (active), the GI50 (OVCAR-3) was 0.255 µM (active) and the GI50 (OVCAR-4) was 0.335 µM (active). For the same compound, the GI50 (OVCAR-5) was 0.284 µM (active), the GI50 (OVCAR-8) was 0.451 µM (active) and the GI50 (PC-3) was 0.407 µM (active). For the same compound, the GI50 (RPMI-8226) was 0.162 µM (active), the GI50 (RXF 393) was 0.215 µM (active) and the GI50 (SF-268) was 0.263 µM (active). The GI50 (SF-295) was 0.366 µM (active), the GI50 (SF-539) was 0.279 µM (active) and the GI50 (SK-MEL-28) was 0.32 µM (active). For the same compound, the GI50 (SK-MEL-2) was 0.324 µM (active), the GI50 (SK-MEL-5) was 0.196 µM (active) and the GI50 (SK-OV-3) was 1.03 µM (active). For the same compound, the GI50 (SN12C) was 0.4 µM (active), the GI50 (SNB-19) was 0.436 µM (active) and the GI50 (SNB-75) was 0.312 µM (active). The GI50 (SR) was 0.257 µM (active), the GI50 (SW-620) was 0.277 µM (active) and the GI50 (T47D) was 0.334 µM (active). For the same compound, the GI50 (TK-10) was 0.366 µM (active), the GI50 (U-251) was 0.307 µM (active) and the GI50 (UACC-257) was 0.256 µM (active). For the same compound, the GI50 (UACC-62) was 0.27 µM (active) and the GI50 (UO-31) was 0.164 µM (active).

Cc1ccc(-c2n[nH]c(=O)n2/N=C\c2ccccc2)cc1 was tested, and the GI50 (786-0) was 60.3 µM (inactive), the GI50 (A498) was 36.6 µM (inactive) and the GI50 (A549) was > 88.5 µM (inactive). For the same compound, the GI50 (ACHN) was 50.6 µM (inactive), the GI50 (BT-549) was 10.1 µM (inactive) and the GI50 (CAKI-1) was 57.9 µM (inactive). The GI50 (CCRF-CEM) was > 80.9 µM (inactive), the GI50 (COLO 205) was 74.1 µM (inactive) and the GI50 (DU-145) was > 94.2 µM (inactive). The GI50 (EKVX) was 24.9 µM (inactive), the GI50 (HCC 2998) was > 87.3 µM (inactive) and the GI50 (HCT-116) was 37.5 µM (inactive). For the same compound, the GI50 (HCT-15) was 72.6 µM, the GI50 (HL-60) was 70.1 µM (inactive) and the GI50 (HOP-62) was 22.6 µM (inactive). For the same compound, the GI50 (HOP-92) was 21 µM (inactive), the GI50 (HT-29) was > 91 µM (inactive) and the GI50 (Hs-578T) was 23.7 µM (inactive). For the same compound, the GI50 (IGROV-1) was 47.5 µM (inactive), the GI50 (K562) was > 76.2 µM (inactive) and the GI50 (KM12) was 54 µM (inactive). The GI50 (LOX IMVI) was > 100 µM (inactive), the GI50 (M14) was > 93.1 µM (inactive) and the GI50 (MCF7) was 56.2 µM (inactive). The GI50 (MDA-MB-231) was 60.5 µM (inactive), the GI50 (MDA-MB-435) was > 100 µM (inactive) and the GI50 (MDA-N) was 51.1 µM (inactive). For the same compound, the GI50 (MOLT-4) was > 79.6 µM (inactive), the GI50 (Malme-3M) was > 91.2 µM (inactive) and the GI50 (NCI-H226) was 71.4 µM (inactive). For the same compound, the GI50 (NCI-H23) was 68.9 µM (inactive), the GI50 (NCI-H460) was 33.6 µM (inactive) and the GI50 (NCI-H522) was 33.8 µM (inactive). For the same compound, the GI50 (NCI/ADR-RES) was 25.2 µM (inactive), the GI50 (OVCAR-3) was > 84.1 µM (inactive) and the GI50 (OVCAR-4) was 61.5 µM (inactive). For the same compound, the GI50 (OVCAR-5) was > 100 µM (inactive), the GI50 (OVCAR-8) was 53.1 µM (inactive) and the GI50 (PC-3) was > 63.2 µM (inactive). The GI50 (RPMI-8226) was > 86.3 µM (inactive), the GI50 (RXF 393) was 24.7 µM (inactive) and the GI50 (SF-268) was 28.4 µM (inactive). The GI50 (SF-295) was 28.2 µM (inactive), the GI50 (SF-539) was 76.2 µM (inactive) and the GI50 (SK-MEL-28) was > 72.8 µM (inactive). For the same compound, the GI50 (SK-MEL-2) was 33.8 µM (inactive), the GI50 (SK-MEL-5) was 75.2 µM (inactive) and the GI50 (SN12C) was 34.5 µM (inactive). For the same compound, the GI50 (SNB-19) was 46.3 µM (inactive), the GI50 (SNB-75) was 28.6 µM (inactive) and the GI50 (SR) was > 72.6 µM (inactive). For the same compound, the GI50 (SW-620) was > 100 µM (inactive), the GI50 (T47D) was 36.6 µM (inactive) and the GI50 (TK-10) was > 59.2 µM (inactive). The GI50 (U-251) was 29.8 µM (inactive), the GI50 (UACC-257) was > 100 µM (inactive) and the GI50 (UACC-62) was 46.8 µM (inactive). The GI50 (UO-31) was > 68.7 µM (inactive).
